From US10988459B2 (priority 2015, dated 2021)

Biological target: human RIP1 kinase domain (2-375) (Homo sapiens (Human), UniProt Q13546)
Test: biochemical
Type: biochemical
Details: Table 5; apparent Ki (Morrison tight-binding fit); 50 nM RIP1 kinase domain, 50 uM ATP, 2 hours incubation; read-out: Ki
Protocol: Example 794: RIP1 Kinase Inhibition Assays (Biochemical Assay)
The compounds of the present invention were tested for their capacity to inhibit RIP1K activity as described below.
The ability of the receptor interacting protein kinase (RIPK1) to catalyze the hydrolysis of adenosine-5′-triphosphate (ATP) is monitored using the Transcreener ADP (adenosine-5′-diphosphate) assay (BellBrook Labs). Purified human RIP1 kinase domain (2-375) (50 nM) derived from a baculovirus-infected insect cell expression system is incubated with test compounds for 2 hours in 50 mM Hepes buffer (pH 7.5) containing 30 mM MgCl2, 1 mM dithiothreitol, 50 uM ATP, 0.002% Brij-35, and 0.5% dimethyl sulfoxide (DMSO). […] The tracer bound to the antibody is displaced by the ADP generated during the RIP1K reaction, which causes a decrease in fluorescence polarization that is measured by laser excitation at 633 nm with a FP microplate reader M1000. Fractional activity was plotted against test article concentration. Using Genedata Screener software (Genedata; Basel, Switzerland), the data were fit to the tight-binding apparent inhibition constant (Ki^app) Morrison equation [Williams, J. W. and Morrison, J. F. (1979) The kinetics of reversible tight-binding inhibition. Methods Enzymol 63: 437-67]. The following equation was used to calculate fractional activity and Ki^app:
[formula] where [E]T and [I]T are the total concentrations of active enzyme and test article, respectively.
“Method” in the first column of each table refers to the synthetic method(s) used to prepare each compound as shown in the Examples above. In certain examples, chiral column retention times (min) are provided for certain stereoisomers.

human RIP1 kinase domain (2-375), sequence (Q13546 2-375): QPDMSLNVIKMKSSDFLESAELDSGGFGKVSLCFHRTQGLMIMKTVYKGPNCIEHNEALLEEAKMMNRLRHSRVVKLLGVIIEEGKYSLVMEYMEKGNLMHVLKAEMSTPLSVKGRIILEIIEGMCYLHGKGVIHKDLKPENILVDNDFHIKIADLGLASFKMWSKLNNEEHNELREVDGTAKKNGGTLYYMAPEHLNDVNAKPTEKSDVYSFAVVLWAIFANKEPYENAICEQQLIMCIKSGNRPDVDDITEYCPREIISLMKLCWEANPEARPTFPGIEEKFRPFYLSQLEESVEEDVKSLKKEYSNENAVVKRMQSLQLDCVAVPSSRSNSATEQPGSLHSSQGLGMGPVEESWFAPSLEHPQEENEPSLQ

| Ki [nM] | SMILES |
| --- | --- |
| 53 | CC(C)Cn1cc(-c2cc3n(n2)CCC(NC(=O)c2ncn(Cc4ccccc4)n2)C(=O)N3C)cn1 (racemic) [Example 699, 1-benzyl-N-[2-(1-isobutylpyrazol-4-yl)-4-methyl-5-oxo-7,8-dihydro-6H-pyrazolo[1,5-a][1,3]diazepin-6-yl]-1,2,4-triazole-3-carboxamide] |
| 33 | Cc1cc2n(n1)CC[C@H](NC(=O)c1cc3c(-c4ccccc4)cccc3cn1)C(=O)N2C (racemic) [Example 702, 5-phenyl-N-[rac-(6S)-2,4-dimethyl-5-oxo-7,8-dihydro-6H-pyrazolo[1,5-a][1,3]diazepin-6-yl]isoquinoline-3-carboxamide] |
| 24 | CN1C(=O)[C@@H](NC(=O)c2cc3c(-c4ccccc4)cccc3cn2)CCn2nccc21 (racemic) [Example 703, 5-phenyl-N-[rac-(6S)-4-methyl-5-oxo-7,8-dihydro-6H-pyrazolo[1,5-a][1,3]diazepin-6-yl]isoquinoline-3-carboxamide] |
| 95 | CCn1ccc(-c2cc3n(n2)CCC(NC(=O)c2ncn(Cc4ccccc4)n2)C(=O)N3C)n1 (racemic) [Example 704, 1-benzyl-N-[2-(1-ethylpyrazol-3-yl)-4-methyl-5-oxo-7,8-dihydro-6H-pyrazolo[1,5-a][1,3]diazepin-6-yl]-1,2,4-triazole-3-carboxamide] |

The remaining lines, values behind:

| SMILES | Ki [nM] |
| --- | --- |
| CN1C(=O)[C@@H](NC(=O)c2cc3c(Br)cccc3cn2)CCn2nccc21 (racemic) [Example 700, 5-bromo-N-[rac-(6S)-4-methyl-5-oxo-7,8-dihydro-6H-pyrazolo[1,5-a][1,3]diazepin-6-yl]isoquinoline-3-carboxamide] | 448 |
| Cc1cc2n(n1)CC[C@H](NC(=O)c1cc3c(Br)cccc3cn1)C(=O)N2C (racemic) [Example 701, 5-bromo-N-[rac-(6S)-2,4-dimethyl-5-oxo-7,8-dihydro-6H-pyrazolo[1,5-a][1,3]diazepin-6-yl]isoquinoline-3-carboxamide] | 618 |

Same assay, conditions: tight-binding apparent inhibition constant; human RIP1 kinase domain (2-375) 50 nM, 50 uM ATP, 2 hours; read-out: Ki

| Ki [nM] | SMILES |
| --- | --- |
| 56 | CN1C(=O)[C@@H](NC(=O)c2nnc(Cc3ccccc3)[nH]2)CCn2nc([C@H]3CC3(F)F)cc21 (racemic) [Example 672, 5-benzyl-N-[rac-(6S)-4-methyl-5-oxo-2-[rac-(1R)-2,2-difluorocyclopropyl]-7,8-dihydro-6H-pyrazolo[1,5-a] [1,3]diazepin-6-yl]-4H-1,2,4-triazole-3-carboxamide] |
| 3980 | CN1C(=O)[C@H](NC(=O)c2ncn(Cc3ccccc3)n2)CCn2nc([C@H]3CC3(F)F)cc21 (racemic) [Example 674, 1-benzyl-N-[rac-(6R)-4-methyl-5-oxo-2-[rac-(1R)-2,2-difluorocyclopropyl]-7,8-dihydro-6H-pyrazolo[1,5-a] [1,3]diazepin-6-yl]-1,2,4-triazole-3-carboxamide] |
| 3100 | C[C@H](c1ccc(F)cc1)n1cnc(C(=O)N[C@H]2CCn3nc(C4CC4)cc3N(C)C2=O)n1 (racemic) [Example 676, N-[rac-(6S)-2-cyclopropyl-4-methyl-5-oxo-7,8-dihydro-6H-pyrazolo[1,5-a][1,3]diazepin-6-yl]-1-[rac-(1R)-1-(4-fluorophenypethyl]-1,2,4-triazole-3-carboxamide] |
| 163 | CCC[C@@]1(C)OCc2cnc(C(=O)N[C@H]3COc4ccccc4N(C)C3=O)nc21 (racemic) [Example 684, rac-(7R)-7-methyl-7-propyl-N-[rao-(3S)-5-methyl-4-oxo-2,3-dihydro-1,5-benzoxazepin-3-yl]-5H-furo[3,4-d]pyrimidine-2-carboxamide] |
| 251 | CC[C@@]1(C)OCc2cnc(C(=O)N[C@H]3CCn4nc(C)cc4N(C)C3=O)nc21 (racemic) [Example 687, rac-(7R)-7-ethyl-7-methyl-N-[rac-(6S)-2,4-dimethyl-5-oxo-7,8-dihydro-6H-pyrazolo[1,5-a][1,3]diazepin-6-yl]-5H-furo[3,4-d]pyrimidine-2-carboxamide] |
| 43.7 | CN1C(=O)[C@@H](NC(=O)c2ncc3c(n2)[C@](C)(CC(F)(F)F)OC3)COc2ccccc21 (racemic) [Example 688, rac-(7S)-7-methyl-N-[rac-(3 S)-5-methyl-4-oxo-2,3-dihydro-1,5-benzoxazepin-3-yl]-7-(2,2,2-trifluoroethyl)-5H-furo[3,4-d]pyrimidine-2-carboxamide] |
| 1180 | CC[C@]1(C)OCc2cnc(C(=O)N[C@H]3CCn4nc(C)cc4N(C)C3=O)nc21 (racemic) [Example 690, rac-(7S)-7-ethyl-7-methyl-N-[rac-(6S)-2,4-dimethyl-5-oxo-7,8-dihydro-6H-pyrazolo [1,5-a][1,3]diapepin-6-yl]-5H-furo[3,4-d]pyrimidine-2-carboxamide] |
| 30.5 | Cc1cn2c(n1)N(C)C(=O)[C@H](NC(=O)c1ncn(Cc3ccccc3)n1)CC2 (racemic) [Example 693, 1-benzyl-N-[rac-(7R)-2,9-dimethyl-8-oxo-6,7-dihydro-5H-imidazo[1,2-a][1,3]diazepin-7-yl]-1,2,4-triazole-3-carboxamide] |
| 172 | CN1C(=O)[C@@H](NC(=O)c2ncc3c(n2)[C@]2(CCOC2)OC3)COc2ccccc21 (racemic) [Example 694, rac-(7S)-N-[rac-(3S)-5-methyl-4-oxo-2,3-dihydro-1,5-benzoxazepin-3-yl]spiro[5H-furo[3,4-d]pyrimidine-7,3′-tetrahydrofuran]-2-carboxamide] |

More lines, now with the values behind:

| SMILES | Ki [nM] |
| --- | --- |
| C[C@@H](c1ccc(F)cc1)n1cnc(C(=O)N[C@H]2CCn3nc(C4CC4)cc3N(C)C2=O)n1 (racemic) [Example 670, N-[rac-(6S)-2-cyclopropyl-4-methyl-5-oxo-7,8-dihydro-6H-pyrazolo[1,5-a][1,3]diazepin-6-yl]-1-[rac-(1S)-1-(4-fluorophenyl)ethyl]-1,2,4-triazole-3-carboxamide] | 26.6 |
| CN1C(=O)[C@H](NC(=O)c2nnc(Cc3ccccc3)[nH]2)CCn2nc([C@H]3CC3(F)F)cc21 (racemic) [Example 673, 5-benzyl-N-[rac-(6R)-4-methyl-5-oxo-2-[rac-(1R)-2,2-difluorocyclopropyl]-7,8-dihydro-6H-pyrazolo[1,5-a] [1,3]diazepin-6-yl]-4H-1,2,4-triazole-3-carboxamide] | 41.2 |
| CN1C(=O)[C@@H](NC(=O)c2ncn(Cc3ccc(Cl)cc3)n2)CCn2nc(C3CC3)cc21 (racemic) [Example 677, 1-[(4-chlorophenyl)methyl]-N-[rac-(6S)-2-cyclopropyl-4-methyl-5-oxo-7,8-dihydro-6H-pyrazolo[1,5-a][1,3]diazepin-6-yl]-1,2,4-triazole-3-carboxamide] | 7.58 |
| CC[C@]1(C)OCc2cnc(C(=O)N[C@H]3COc4ccccc4N(C)C3=O)nc21 (racemic) [Example 685, rac-(7S)-7-ethyl-7-methyl-N-[rac-(3S)-5-methyl-4-oxo-2,3-dihydro-1,5-benzoxazepin-3-yl]-5H-furo[3,4-d] pyrimidine-2-carboxamide] | 21.4 |
| Cc1cc2n(n1)CC[C@H](NC(=O)c1ncc3c(n1)[C@@](C)(CC(F)(F)F)OC3)C(=O)N2C (racemic) [Example 686, rac-(7R)-7-methyl-N-[rac-(6S)-2,4-dimethyl-5-oxo-7,8-dihydro-6H-pyrazolo[1,5-a][1,3]diazepin-6-yl]-7-(2,2,2-trifluoroethyl)-5H-furo[3,4-d]pyrimidine-2-carboxamide] | 1100 |
| Cc1cc2n(n1)CC[C@H](NC(=O)c1ncc3c(n1)[C@](C)(CC(F)(F)F)OC3)C(=O)N2C (racemic) [Example 689, rac-(75)-7-methyl-N-[rac-(6S)-2,4-dimethyl-5-oxo-7,8-dihydro-6H-pyrazolo[1,5-a][1,3diazepin-6-yl]-7-(2,2,2-trifluoroethyl)-5H-furo[3,4-d]pyrimidine-2-carboxamide] | 176 |
| CN1C(=O)[C@@H](NC(=O)c2ncc3c(n2)[C@@](C)(CC(F)(F)F)OC3)COc2ccccc21 (racemic) [Example 691, rac-(7R)-7-methyl-N-[rac-(3S)-5-methyl-4-oxo-2,3-dihydro-1,5-benzoxazepin-3-yl]-7-(2,2,2-trifluoroethyl)-5H-furo[3,4-d]pyrimidine-2-carboxamide] | 22.8 |
| CN1C(=O)[C@@H](NC(=O)c2ncc3c(n2)[C@@]2(CCCOC2)OC3)COc2ccccc21 (racemic) [Example 692, rac-(7R)-N-[rac-(3S)-5-methyl-4-oxo-2,3-dihydro-1,5-benzoxazepin-3-yl]spiro[5H-furo[3,4-d]pyrimidine-7,3′-tetrahydropyran]-2-carboxamide] | 113 |
| CN1C(=O)[C@@H](NC(=O)c2nc3n(n2)CCO[C@H]3c2ccccc2)COc2ccccc21 (racemic) [Example 695, rac-(8S)-8-phenyl-N-[rac-(3S)-5-methyl-4-oxo-2,3-dihydro-1,5-benzoxazepin-3-yl]-6,8-dihydro-5H-[1,2,4] triazolo[5,1-c][1,4]oxazine-2-carboxamide] | 694 |
| CN1C(=O)[C@@H](NC(=O)c2ncc3c(n2)[C@]2(CCCOC2)OC3)COc2ccccc21 (racemic) [Example 696, rac-(75)-N-[rac-(3S)-5-methyl-4-oxo-2,3-dihydro-1,5-benzoxazepin-3-yl]spiro[5H-furo[3,4-d]pyrimidine-7,3′-tetrahydropyran]-2-carboxamide] | 120 |
